Assay results: ChEMBL document CHEMBL4303101, “Identification of inhibitors of SARS-CoV-2 in-vitro cellular toxicity in human (Caco-2) cells using a large scale drug repurposing collection” (2020)

Tests used:
[1] = test system: SARS-CoV-2; conditions: Homo sapiens; Caco-2; 10 uM
[2] = test system: SARS-CoV-2; experiment: microbe, parasite or virus in culture; conditions: Severe acute respiratory syndrome coronavirus 2, Caco-2, 48 h
[3] = in vitro; conditions: human, Caco-2 cells
[4] = in vitro; conditions: human
[5] = test system: Caco-2; conditions: human, caco-2, 48 h
[6] = test system: SARS-CoV-2; conditions: caco-2

Row | Molecule | inhibition [1] [%] | IC50 [2] [µM] | CC50 at 48 h [3] [µM] | selectivity ratio ([4]; Caco-2 cells) | other results
1 | ACRIFLAVINE HYDROCHLORIDE | 69.4 | – | – | – | –
2 | C=C(c1ccccc1OCc1cccc(Cl)c1)n1ccnc1 [CROCONAZOLE] | – | 18.9 | 33 | 2 | –
3 | CC1=C(CCC(=O)O)c2cc3nc(cc4[nH]c(cc5[nH]c(cc1n2)c(C)c5C(C)O)c(C)c4C(C)O)C(C)=C3CCC(=O)O (stereo unspecified) [HAEMAPORPHYRIN] | – | – | 160 | – | –
4 | Cc1nn(C)c2nc(NNC(=O)Nc3cc(Cl)nc(Cl)c3)cc(C(C)C)c12 | – | 5.97 | 16.4 | 3 | –
5 | CCOC(=O)c1ncc2[nH]c3ccc(OCc4ccccc4)cc3c2c1COC | – | 1.34 | 0.91 | 1 | –
6 | CCS(=O)(=O)N(Cc1cccnc1)c1cccc(-c2ccc(C#N)cc2)c1 | – | 17.1 | 13.4 | 1 | –
7 | COC(=O)C[C@@](O)(CCC(C)(C)O)C(=O)O[C@@H]1C(OC)=C[C@]23CCCN2CCc2cc4c(cc2[C@@H]13)OCO4 | – | 19 | 0.07 | – | –
8 | CYANOCOBALAMIN | 40.4 | – | – | – | –
9 | Nc1nccc(-c2c(-c3ccc(F)cc3)ncn2C2CCCCC2)n1 | – | 19.2 | 8.24 | – | –
10 | COc1cc2ncc(-c3ccccc3)nc2cc1OC | – | 0.2 | 1.36 | – | –
11 | AUROTHIOGLUCOSE | 2.42 | – | – | – | –
12 | CCC(CC)COC(=O)[C@H](C)N[P@](=O)(OC[C@H]1O[C@@](C#N)(c2ccc3c(N)ncnn23)[C@H](O)[C@@H]1O)Oc1ccccc1 | – | 0.76 | 2580 | – | selectivity ratio ([4]; caco-2): 3400
13 | NYSTATIN | -4.11 | – | – | – | –
14 | THIMEROSAL | – | – | – | – | CC50 [5]: 13.5 µM; IC50 [6]: 1.69 µM
15 | C/C=C/C[C@@H](C)[C@@H](O)[C@H]1C(=O)N[C@@H](CC)C(=O)N(C)[C@H](C)C(=O)N(CC)[C@@H](C(C)C)C(=O)N[C@@H](C(C)C)C(=O)N(C)[C@@H](CC(C)C)C(=O)N[C@@H](C)C(=O)N[C@H](C)C(=O)N(C)[C@@H](CC(C)C)C(=O)N(C)[C@@H](CC(C)C)C(=O)N(C)[C@@H](C(C)C)C(=O)N1C [ALISPORIVIR] | – | 3.1 | > 20 | > 6 | –
16 | CC(C)(C)c1ccc(/C=C/C(=O)Nc2ccc3c(c2)OCCO3)cc1 | – | 15 | 14.2 | 1 | –
17 | CCCC[C@@]1(C2CCCC2)Cc2cc(OCCCC(=O)O)c(Cl)c(Cl)c2C1=O | – | 12.8 | 24.6 | 2 | –
18 | Cn1cc(-c2ccc3c(c2)CCN3C(=O)Cc2cccc(C(F)(F)F)c2)c2c(N)ncnc21 | – | 0.25 | 70.4 | > 100 | –

Row | Molecule | inhibition [1] [%] | IC50 [2] [µM] | CC50 at 48 h [3] [µM] | selectivity ratio ([4]; Caco-2 cells) | other results
19 | Nc1nc2c(ncn2[C@@H]2O[C@H](CO)[C@@H](O)[C@H]2O)c(=S)[nH]1 [THIOGUANOSINE] | – | 0.78 | 0.63 | 1 | –
20 | ESCIN | -9.26 | – | – | – | –
21 | CCCCCCCCCCCCOCCOCCOCCOCCOCCOCCOCCOCCOCCO | – | 0.22 | 10.3 | – | –
22 | COLISTIMETHATE SODIUM | -7.44 | – | – | – | –
23 | AURANOFIN | 12.8 | – | – | – | –
24 | PHENYLMERCURIC ACETATE | 9.11 | – | – | – | –
25 | CCCCCCCCCCCCCCCCCC[S+](CCC)c1ccccc1C(=O)OCC (stereo unspecified) | – | 0.77 | 0.89 | 1 | –
26 | TOCOFERSOLAN | 95.2 | – | – | – | –
27 | Cc1cc(Nc2cc(N3CCN(C)CC3)nc(Sc3ccc(NC(=O)C4CC4)cc3)n2)n[nH]1 | -0.85 | – | – | – | –
28 | Cc1cccc2c1CC[C@H](CN1CCC(c3c(Cl)cccc3Cl)CC1)C[C@@H]2O | – | 0.77 | 3.67 | 5 | –
29 | C/C(=N\NC(=S)N1CCC1)c1ccccn1 | – | < 0.02 | < 0.02 | 1 | –
30 | CETRIMONIUM BROMIDE | 55.1 | – | – | – | –
31 | N=C(Nc1ccc(I)cc1)NC1C2CC3CC(C2)CC1C3 (stereo unspecified) | – | 5.96 | 11.5 | 2 | –
32 | CC(=O)OC[C@]12CCC(C)=C[C@H]1O[C@@H]1[C@H](O)[C@@H](OC(C)=O)[C@@]2(C)[C@@]12CO2 | 35 | – | – | – | –
33 | VITAMIN B12 | -8.31 | – | – | – | –
34 | GADOTERIDOL | 2.66 | – | – | – | –
35 | SODIUM ORTHOVANADATE | 1.6 | – | – | – | –
36 | FC(F)(F)Oc1ccc2nc(-c3ccc(OCCOCCOc4ccc(-c5nc6ccc(OC(F)(F)F)cc6[nH]5)nc4)cn3)[nH]c2c1 | – | 0.19 | 6.58 | 35 | –
